Experimental data as given in BindingDB's records for doi:10.1021/acs.biochem.6b01152 (University of California San Diego, 2017).

Tests used:
Assay in all cases: 8-[Fluo]-cAMP Fluorescence Polarization Binding Assay
[1] = target: cAMP-dependent protein kinase type I-alpha regulatory subunit [R241A] (Homo sapiens, UniProt P10644, R241A)
Experimental: (§1) The ability of the R subunit basic patch mutants to bind cAMP in the absence of the C subunit was tested using the fluorescent cAMP analogue, 8-[fluo]-cAMP (Biolog), used at a final concentration of 10 nM. Wells were titrated with a rangeof R subunit concentrations (from 0 to 125 nM), which were diluted with FP assay buffer.

[2] = target: cAMP-dependent protein kinase type I-alpha regulatory subunit (Homo sapiens, UniProt P10644)
cAMP-dependent protein kinase type I-alpha regulatory subunit, sequence (P10644 whole entry): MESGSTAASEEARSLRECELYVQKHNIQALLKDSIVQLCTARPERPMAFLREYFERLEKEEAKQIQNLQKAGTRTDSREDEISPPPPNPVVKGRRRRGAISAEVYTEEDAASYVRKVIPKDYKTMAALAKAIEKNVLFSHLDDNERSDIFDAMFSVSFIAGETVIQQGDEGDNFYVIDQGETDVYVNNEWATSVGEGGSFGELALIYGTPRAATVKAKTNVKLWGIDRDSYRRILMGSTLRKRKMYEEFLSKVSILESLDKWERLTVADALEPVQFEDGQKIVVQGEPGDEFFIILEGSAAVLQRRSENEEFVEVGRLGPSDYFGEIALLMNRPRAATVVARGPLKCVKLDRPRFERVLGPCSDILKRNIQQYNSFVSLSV
Experimental: as §1

[3] = target: cAMP-dependent protein kinase type I-alpha regulatory subunit [K244A] (Homo sapiens, UniProt P10644, K244A)
cAMP-dependent protein kinase type I-alpha regulatory subunit [K244A], sequence (P10644 whole entry K244A): as the sequence (P10644 whole entry) above, with K244A counted along it
Experimental: as §1

[4] = target: cAMP-dependent protein kinase type I-alpha regulatory subunit [R243A] (Homo sapiens, UniProt P10644, R243A)
cAMP-dependent protein kinase type I-alpha regulatory subunit [R243A], sequence (P10644 whole entry R243A): as the sequence (P10644 whole entry) above, with R243A counted along it
Experimental: as §1

[5] = target: cAMP-dependent protein kinase type I-alpha regulatory subunit [K242A] (Homo sapiens, UniProt P10644, K242A)
cAMP-dependent protein kinase type I-alpha regulatory subunit [K242A], sequence (P10644 whole entry K242A): as the sequence (P10644 whole entry) above, with K242A counted along it
Experimental: as §1

cAMP-dependent protein kinase type I-alpha regulatory subunit [R241A], sequence (P10644 whole entry R241A): as the sequence (P10644 whole entry) above, with R241A counted along it

Nc1ncnc2c1nc(SCCNC(=S)Nc1ccc(-c3c4ccc(=O)cc-4oc4cc(O)ccc34)c(C(=O)O)c1)n2C1OC2COP(=O)(O)OC2C1O (stereo not given) [8-[Fluo]-cAMP] showed a Kd [1] of 6.72 nM, a Kd [2] of 7.3 nM and a Kd [3] of 7.71 nM. For the same molecule, the Kd [4] was 7.29 nM and the Kd [5] was 7.32 nM.
